Assay results taken from patent US20240101573A1, “MACROCYCLIC K-RAS G12C INHIBITOR, PREPARATION METHOD THEREFOR AND USE THEREOF” (Abbisko Therapeutics Co., Ltd., priority 2020, published 2024).

Columns and labels:
[1] = system: MIA PaCa-2; assay: Anti-proliferation 2D CTG test (MIA PaCa-2); format: cell-based; details: MIAPACA-2 cells, 500 cells/well, 5 days incubation with compound, CTG readout
How it was run: (§1)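 H358 (1500 cells/well) and MIA PaCa-2 (500 cells/well) seeded overnight, then treated 5 days at 37 °C with 10-point 1:3 dilutions, top final […], 0.5% DMSO. Viability by CellTiter-Glo luminescence; IC50 from four-parameter fit normalized to plate controls.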

[2] = system: H358; assay: Anti-proliferation 2D CTG test (H358); format: cell-based; details: H358 cells, 1500 cells/well, 5 days incubation with compound, CTG readout
How it was run: as §1

[3] = Homo sapiens, MIA PaCa-2, 120 h

SMILES | IC50 [1] | IC50 [2] | IC50 [1, 3] | IC50 ([2]; Homo sapiens, NCI-H358, 120 h)
C=CC(=O)N1C[C@H](C)N(c2nc(=O)n3c4nc(c(F)cc24)-c2c(F)cccc2OCC(O)C(OCC)c2ccnc(C(C)C)c2-3)C[C@H]1C (stereo partly drawn) [Example 57, (R)-2^4-((2S,5R)-4-acryloyl-2,5-dimethylpiperazin-1-yl)-7-ethoxy-2^6,3^6-difluoro-6-hydroxy-1^2-isopropyl-2^1,2^2-dihydro-4-oxa-2(1,7)-pyrido[2,3-d]pyrimidina-1(3,4)-pyridina-3(1,2)-benzocycloheptane-2^2-one] | 18 nM | 35 nM |  | 
C=CC(=O)N1C[C@H](C)N(c2nc(=O)n3c4nc(c(F)cc24)-c2c(F)cccc2OCC(O)C(OCC)c2ccnc(C(C)C)c2-3)C[C@H]1C (stereo partly drawn) [Example 58, (S)-2^4-((2S,5R)-4-acryloyl-2,5-dimethylpiperazin-1-yl)-7-ethoxy-2^6,3^6-difluoro-6-hydroxy-1^2-isopropyl-2^1,2^2-dihydro-4-oxa-2(1,7)-pyrido[2,3-d]pyrimidina-1(3,4)-pyridina-3(1,2)-benzocycloheptane-2^2-one] | 314 nM | 461 nM |  | 
C=CC(=O)N1CCN(c2nc(=O)n3c4nc(c(F)cc24)-c2c(F)cccc2OCC(OC)C(OC)c2ccnc(C(C)C)c2-3)[C@@H](C)C1 (stereo partly drawn) [Example 59, 2^4-((S)-4-acryloyl-2-methylpiperazin-1-yl)-2^6,3^6-difluoro-1^2-isopropyl-6,7-dimethoxy-2^1,2^2-dihydro-4-oxa-2(1,7)-pyrido[2,3-d]pyrimidina-1(3,4)-pyridina-3(1,2)-benzocycloheptane-2^2-one] |  |  | 9 nM | 23 nM
C=CC(=O)N1CCN(c2nc(=O)n3c4nc(c(F)cc24)-c2c(F)cccc2OCC(OCC)C(OCC)c2ccnc(C(C)C)c2-3)[C@@H](C)C1 (stereo partly drawn) [Example 60, 2^4-((S)-4-acryloyl-2-methylpiperazin-1-yl)-6,7-diethoxy-2^6,3^6-difluoro-1^2-isopropyl-2^1,2^2-dihydro-4-oxa-2(1,7)-pyrido[2,3-d]pyrimidina-1(3,4)-pyridina-3(1,2)-benzocycloheptane-2^2-one] |  |  | 38 nM | 45 nM
C=CC(=O)N1CCN(c2nc(=O)n3c4nc(c(F)cc24)-c2c(F)cccc2OCC(OCCF)C(OCCF)c2ccnc(C(C)C)c2-3)[C@@H](C)C1 (stereo partly drawn) [Example 61, 2^4-((S)-4-acryloyl-2-methylpiperazin-1-yl)-2^6,3^6-difluoro-6,7-di(2-fluoroethoxy)-1^2-isopropyl-2^1,2^2-dihydro-4-oxa-2(1,7)-pyrido[2,3-d]pyrimidina-1(3,4)-pyridina-3(1,2)-benzocycloheptane-2^2-one] |  |  | 16 nM | 38 nM
C=CC(=O)N1CCN(c2nc(=O)n3c4nc(c(F)cc24)-c2c(F)cccc2OCC2OC(=O)OC2c2ccnc(C(C)C)c2-3)[C@@H](C)C1 (stereo partly drawn) [Example 62, 11-((S)-4-acryloyl-2-methylpiperazin-1-yl)-15,21-difluoro-7-isopropyl-3a,20a-dihydro-9H,20H-12,14-(epiethane[1,2]diylidene)benzo[b][1,3]dioxazolo[4,5-j]pyrido[3,4-h]pyrimido[6,1-f][1]oxa[5,7]diazacyclodidecyne-2,9-dione] |  |  | 16 nM | 20 nM
C=CC(=O)N1CCN(c2nc(=O)n3c4nc(c(F)cc24)-c2c(F)cccc2OCC2OC(C)(C)OC2c2ccnc(C(C)C)c2-3)[C@@H](C)C1 (stereo partly drawn) [Example 63, 11-((S)-4-acryloyl-2-methylpiperazin-1-yl)-15,21-difluoro-7-isopropyl-2,2-dimethyl-3a,20a-dihydro-9H,20H-12,14-(eiethane[1,2]diylidene)benzo[b][1,3]dioxazolo[4,5-j]pyrido[3,4-h]pyrimido[6,1-f][1]oxa[5,7]diazacyclododecin-9-one] |  |  | 4 nM | 4 nM
C=CC(=O)N1C[C@H](C)N(c2nc(=O)n3c4nc(c(F)cc24)-c2c(ccc(Cl)c2F)OCC(O)C(O)c2ccnc(C(C)C)c2-3)C[C@H]1C (stereo partly drawn) [Example 65, (R)-2^4-((2S,5R)-4-acryloyl-2,5-dimethylpiperazin-1-yl)-3^5-chloro-2^6,3^6-difluoro-6,7-dihydroxy-1^2-isopropyl-2^1,2^2-dihydro-4-oxa-2(1,7)-pyrido[2,3-d]pyrimidina-1(3,4)-pyridina-3(1,2)-benz ocycloheptane-2^2-one] |  |  | 1 nM | 1 nM
C=CC(=O)N1CCN(c2nc(=O)n3c4nc(c(F)cc24)-c2c(ccc(Cl)c2F)OCC(O)C(O)c2ccnc(C(C)C)c2-3)[C@@H](C)C1 (stereo partly drawn) [Example 66, (R)-2^4-((S)-4-acryloyl-2-methylpiperazin-1-yl)-3^5-chloro-2^6,3^6-difluoro-6,7-dihydroxy-1^2-isopropyl-2^1,2^2-dihydro-4-oxa-2(1,7)-pyrido[2,3-d]pyrimidina-1(3,4)-pyridina-3(1,2)-benzocycloheptane-2^2-one] | 3 nM | 5 nM |  | 
C=CC(=O)N1CCN(c2nc(=O)n3c4nc(c(F)cc24)-c2c(ccc(Cl)c2F)OCC(O)C(O)c2ccnc(C(C)C)c2-3)[C@@H](C)C1 (stereo partly drawn) [Example 67, (S)-2^4-((S)-4-acryloyl-2-methylpiperazin-1-yl)-3^5-chloro-2^6,3^6-difluoro-6,7-dihydroxy-1^2-isopropyl-2^1,2^2-dihydro-4-oxa-2(1,7)-pyrido[2,3-d]pyrimidina-1(3,4)-pyridina-3(1,2)-benzocycloheptane-2^2-one] | 859 nM | 1320 nM |  | 
C=CC(=O)N1CCN(c2nc(=O)n3c4nc(c(F)cc24)-c2c(ccc(Cl)c2F)OCC(O)C(OCC)c2ccnc(C(C)C)c2-3)[C@@H](C)C1 (stereo partly drawn) [Example 68, 2^4-((S)-4-acryloyl-2-methylpiperazin-1-yl)-3^5-chloro-7-ethoxy-2^6,3^6-difluoro-6-hydroxy-1^2-isopropyl-2^1,2^2-dihydro-4-oxa-2(1,7)-pyrido[2,3-d]pyrimidina-1(3,4)-pyridina-3(1,2)-benzocycloheptane-2^2-one] | 22 nM | 27 nM |  | 
C=CC(=O)N1C[C@H](C)N(c2nc(=O)n3c4nc(c(F)cc24)-c2c(ccc(Cl)c2F)OCC(O)C(OCC)c2ccnc(C(C)C)c2-3)C[C@H]1C (stereo partly drawn) [Example 70, 2^4-((2S,5R)-4-acryloyl-2,5-dimethylpiperazin-1-yl)-3^5-chloro-7-ethoxy-2^6,3^6-difluoro-6-hydroxy-1^2-isopropyl-2^1,2^2-dihydro-4-oxa-2(1,7)-pyrido[2,3-d]pyrimidina-1(3,4)-pyridina-3(1,2)-benzocycloheptane-2^2-one] | 7 nM | 16 nM |  | 

Further lines, results first:

IC50 [1] | IC50 [2] | IC50 [1, 3] | IC50 ([2]; Homo sapiens, NCI-H358, 120 h) | SMILES
7 nM | 10 nM |  |  | C=CC(=O)N1CCN(c2nc(=O)n3c4nc(c(F)cc24)-c2c(F)cccc2OCC(O)C(OCC(F)F)c2ccnc(C(C)C)c2-3)[C@@H](C)C1 (stereo partly drawn) [Example 51, (R)-2^4-((S)-4-acryloyl-2-methylpiperazin-1-yl)-7-(2,2-difluoroethoxy)-2^6,3^6-difluoro-6-hydroxy-1^2-isopropyl-2^1,2^2-dihydro-4-oxa-2(1,7)-pyrido[2,3-d]pyrimidina-1(3,4)-pyridina-3(1,2)-benzocycloheptane-2^2-one]
16 nM | 17 nM |  |  | C=CC(=O)N1CCN(c2nc(=O)n3c4nc(c(F)cc24)-c2c(F)cccc2OCC(OCC(F)F)C(O)c2ccnc(C(C)C)c2-3)[C@@H](C)C1 (stereo partly drawn) [Example 53, (R)-2^4-((S)-4-acryloyl-2-methylpiperazin-1-yl)-6-(2,2-difluoroethoxy)-2^6,3^6-difluoro-7-hydroxy-1^2-isopropyl-2^1,2^2-dihydro-4-oxa-2(1,7)-pyrido[2,3-d]pyrimidina-1(3,4)-pyridina-3(1,2)-benzocycloheptane-2^2-one]
708 nM | 830 nM |  |  | C=CC(=O)N1CCN(c2nc(=O)n3c4nc(c(F)cc24)-c2c(F)cccc2OCC(OCC(F)F)C(O)c2ccnc(C(C)C)c2-3)[C@@H](C)C1 (stereo partly drawn) [Example 54, (S)-2^4-((S)-4-acryloyl-2-methylpiperazin-1-yl)-6-(2,2-difluoroethoxy)-2^6,3^6-difluoro-7-hydroxy-1^2-isopropyl-2^1,2^2-dihydro-4-oxa-2(1,7)-pyrido[2,3-d]pyrimidina-1(3,4)-pyridina-3(1,2)-benzocycloheptane-2^2-one]
7 nM | 8 nM |  |  | C=CC(=O)N1CCN(c2nc(=O)n3c4nc(c(F)cc24)-c2c(F)cccc2OCC(OC(C)C)C(O)c2ccnc(C(C)C)c2-3)[C@@H](C)C1 (stereo partly drawn) [Example 55, (R)-2^4-((S)-4-acryloyl-2-methylpiperazin-1-yl)-6-isopropoxy-2^6,3^6-difluoro-7-hydroxy-1^2-isopropyl-2^1,2^2-dihydro-4-oxa-2(1,7)-pyrido[2,3-d]pyrimidina-1(3,4)-pyridina-3(1,2)-benzocycloheptane-2^2-one]
218 nM | 221 nM |  |  | C=CC(=O)N1CCN(c2nc(=O)n3c4nc(c(F)cc24)-c2c(F)cccc2OCC(OC(C)C)C(O)c2ccnc(C(C)C)c2-3)[C@@H](C)C1 (stereo partly drawn) [Example 56, (S)-2^4-((S)-4-acryloyl-2-methylpiperazin-1-yl)-6-isopropoxy-2^6,3^6-difluoro-7-hydroxy-1^2-isopropyl-2^1,2^2-dihydro-4-oxa-2(1,7)-pyrido[2,3-d]pyrimidina-1(3,4)-pyridina-3(1,2)-benzocycloheptane-2^2-one]
26 nM | 31 nM |  |  | C=CC(=O)N1CCN(c2nc(=O)n3c4nc(c(F)cc24)-c2c(ccc(Cl)c2F)OCC(OCC)C(O)c2ccnc(C(C)C)c2-3)[C@@H](C)C1 (stereo partly drawn) [Example 69, 2^4-((S)-4-acryloyl-2-methylpiperazin-1-yl)-3^5-chloro-6-ethoxy-2^6,3^6-difluoro-7-hydroxy-1^2-isopropyl-2^1,2^2-dihydro-4-oxa-2(1,7)-pyrido[2,3-d]pyrimidina-1(3,4)-pyridina-3(1,2)-benzocycloheptane-2^2-one]
